One experiment concerns G361. In words: Proliferation of G361 melanoma cells alone or co-cultured with stromal cell lines, PLX4720 with or without Crizotinib (Table 5). The class given is cell-based, human. The settings on record: for normalized proliferation: G361, PLX4720 - 2 uM, DMSO (no Crizotinib). From the text: (§1) The DLD-1 cells do harbor the BRAF activating mutation V600E but are not sensitive at all to BRAF inhibition. They actually grow faster under BRAFi.
(§2) Proliferation was quantified after 7 days and normalized to non-treated cells. Bars represent standard error between replicates (n=3).
(§3) The propensity of tumors to develop resistance to a wide range of chemotherapy drugs imposes a critical hurdle to the treatment of most types of cancers. […] An optimized high-throughput screening system was used to explore the prevalence and significance of stromal cell-mediated chemoresistance in solid tumors. Forty-six GFP-labeled human cancer cell lines (Table 1) were cultured on 384-well plates either alone or co-cultured with each one of 23 human stromal cell lines (Table 3). The effects of a diverse range of widely used chemotherapy drugs (Table 2) on the proliferation of the single- or co-cultured cancer cell lines were assessed through GFP readings and through fluorescence microscopy.

The subject of the next experiment is SK-MEL-28. In words: Proliferation of SK-MEL-28 melanoma cells alone or co-cultured with stromal cell lines, PLX4720 with or without Crizotinib (Table 5). The format is cell-based, human. The settings on record: DMSO (no Crizotinib).
Excerpt: as §1, §2, §3

The next experiment deals with SK-MEL-5. The experiment is described as follows: Proliferation of SK-MEL-5 melanoma cells alone or co-cultured with stromal cell lines, PLX4720 with or without Crizotinib (Table 5). The class given is cell-based, human. To be noted: DMSO (no Crizotinib).
Excerpt: as §1, §2, §3

In a further experiment the test system is WiDr. In words: Sensitivity of colorectal cancer cell line to PLX4720 with or without stromal cells (FIG. 2B). The format is cell-based, human. To be noted: colorectal cancer cell lines represented by WiDr. An excerpt: The propensity of tumors to develop resistance to a wide range of chemotherapy drugs imposes a critical hurdle to the treatment of most types of cancers. While the role of the cellular microenvironment in tumor progression and metastasis has been increasingly studied in recent years, its effects on drug resistance are still underappreciated and poorly understood. An optimized high-throughput screening system was used to explore the prevalence and significance of stromal cell-mediated chemoresistance in solid tumors. Forty-six GFP-labeled human cancer cell lines (Table 1) were cultured on 384-well plates either alone or co-cultured with each one of 23 human stromal cell lines (Table 3). The effects of a diverse range of widely used chemotherapy drugs (Table 2) on the proliferation of the single- or co-cultured cancer cell lines were assessed through GFP readings and through fluorescence microscopy. Stroma-mediated primary chemoresistance was clearly detected across most cancer cell lines and chemotherapy drugs (FIGS. 1A and 1B, Tables 3 and 4). In most cases, only a small subset of the stromal cells could render a specific cancer-cell line more resistant to a specific drug, and this subset was usually the same across cancer cell lines from the same origin (FIGS. 1-4). […]

For experiment [1], the system named is V600E B-RAF melanoma cell lines. The settings on record: pre-clinical trials; cited from earlier work.

Take `CCCS(=O)(=O)Nc1ccc(F)c(C(=O)c2c[nH]c3ncc(Cl)cc23)c1F` [PLX4720]: the normalized proliferation in the experiment on G361 (1069sk) turned out to be 0.1; in the experiment on G361 (HS-5) it was 0.2; in the experiment on G361 (LL86) it was 0.5; in the experiment with G361 (No Fibro), 0.1; in the experiment with G361 (Wi-38), 0.4; with SK-MEL-28 (1069sk, PLX4720 - 2 uM), 0.1. In addition, the normalized proliferation in the experiment with SK-MEL-28 (HS-5, PLX4720 - 2 uM) was 0.1; in the experiment on SK-MEL-28 (LL86, PLX4720 - 2 uM), 0.3; in the experiment with SK-MEL-28 (No Fibro, PLX4720 - 2 uM) it was 0.1; in the experiment on SK-MEL-28 (Wi-38, PLX4720 - 2 uM), 0.4; in the experiment on SK-MEL-5 (1069sk, PLX4720 - 2 uM), 0.4; in the experiment on SK-MEL-5 (HS-5, PLX4720 - 2 uM), 0.5. In addition, the normalized proliferation is on record as 0.8 in the experiment on SK-MEL-5 (LL86, PLX4720 - 2 uM); 0.3 with SK-MEL-5 (No Fibro, PLX4720 - 2 uM); 0.6 in the experiment with SK-MEL-5 (Wi-38, PLX4720 - 2 uM). Also, the “sensitivity to the BRAF inhibitor PLX4720” value in the experiment with G361 (melanoma cell lines represented by G-361, FIG. 2B) is reported as “sensitive”. The “sensitivity to BRAFi” value with WiDr is reported as “largely not sensitive”. For the same compound, the “sensitivity of V600E B-RAF melanoma cell lines” value in experiment [1] is on record as “extremely sensitive”.

The record behind these values is patent US20140348819A1, “Methods of Treating Cancer” (Dana-Farber Cancer Institute, Inc., priority 2011, published 2014).
